The assay concerns embryonic dorsal root ganglion (DRG) explants. Format: cell-based.

This is an account of results in US20200386742A1, “CELL SYSTEMS USING SPHEROIDS AND METHODS OF MAKING AND USING THE SAME” (priority 2017, published 2020).

For `NC1=N[C@H](O)[C@H]2[C@H]3O[C@]4(O)O[C@@H]([C@@H](O)[C@@]2(N1)[C@@H]4O)[C@]3(O)CO` [tetrodotoxin], the “effect on electrically evoked compound action potentials (CAPs)” value was “reversibly abolished”.
